Experimental data reported in patent US11571426B2, “Compositions for preventing or treating lupus” (CHONG KUN DANG PHARMACEUTICAL CORP., priority 2017, dated 2023).
Marks after values point to notes of the source that are not given here.

Tests used:
NZB/W F1 female mice [1] = assay: Immunoglobulin isotypes in serum (Luminex); assay type: in vivo, mouse; details: 50 mg/kg dosed group vs negative control
Protocol: (§1) 80 NZB/W F1 female mice (four weeks old) were purchased from Jackson Laboratory and maintained in an SPF breeding room with five mice per cage. Their weight and urine protein were measured at 24 weeks after birth (right before administration), and then all the animals except those having too much urine protein were divided into groups as shown in a table 2 below such that the urine protein and weight might be evenly distributed among the groups.
(§2) Then, the mice were administered as described in the table 2 once a day for about 19 weeks from 24 weeks after birth to 42 weeks after birth.
A concentration of immunoglobulin isotypes (IgG1, IgG2a, IgG2b, IgG3 and IgM) in the serum obtained during the mouse autopsy was measured by means of Luminex assay kit for mouse isotype (R&D systems, Minneapolis, Minn.).

NZB/W F1 female mice [2] = assay: BUN and serum creatinine in SLE model mouse; assay type: in vivo
Protocol: as §1, §2
The fresh urine of mice was collected before and after administration every two weeks, while blood collection was performed before and after administration every four weeks. The serum was prepared by centrifugation of the collected blood and then kept at −70° C.
To evaluate a kidney function of the SLE model mouse, BUN and creatine concentrations were measured from a mouse serum collected every month (at 24, 28, 32, 36 and 40 weeks old and during autopsy) by means of a Dri-CHEM 3000 colorimetric analyzer (Fuji film).

NZB/W F1 female mice [3] = assay: Serum CXCL10 and CCL2 in SLE disease mouse; assay type: in vivo; details: 36 weeks old
Protocol: as §1, §2
Meanwhile, when a level of CXCL10 (IFN-inducible protein 10, IP-10) and CCL2 (MCP-1) in serum was measured at 36 weeks old, it was identified that the level of CXCL10 in serum was decreased in all the experimental groups, and the level of CCL2 in serum was decreased in the 50 mg/kg dosed group (FIG. 14).

NZB/W F1 female mice [4] = assay: Serum chemistry after long-term administration; assay type: in vivo, mouse; details: serum at autopsy
Protocol: as §1, §2
Data obtained from groups were compared using a Kruskal-Wallis (†p<0.05), *p<0.05 versus C group (Mann-Whitney U-test), ALT: alanine aminotransferase, AST: aspartate aminotransferase, ALP: alkaline phosphatase, TBIL: total bilirubin, TCHOL: total cholesterol, TG: triglyceride, TP: total protein, CPK: creatine phosphokinase)

NZB/W F1 female mice [5] = assay: Renal histopathological evaluation in SLE model mouse; assay type: in vivo
Protocol: as §1, §2
To identify an effect of the inventive pharmaceutical composition on kidney in the SLE disease model, a histopathological evaluation was performed.
First of all, a half of a left kidney of a mouse collected during the autopsy was fixed with 10% neutral buffered formalin and prepared as a paraffin block. Then, a histopathological evaluation was performed by means of hematoxylin and eosin staining (H&E, BBC Biochemical, Mount Vernon, Wash., USA), periodic acid-schiff staining (PAS, BBC Biochemical) and Masson's trichrome staining (BBC Biochemical).

[6] = test system: TNFα secretion in LPS-stimulated human monocyte cell lines (THP-1); assay: Suppression of TNFα secretion in LPS-stimulated THP-1 (ELISA); assay type: cell-based; details: at both 100 nM and 300 nM
Protocol: To identify the efficacy of the inventive compounds on suppressing a TNFα secretion in immune responses, suppression of TNFα production, which was achieved by a treatment with compounds 374, 461, 500, 530 and 532 according to the present invention in LPS-stimulated human monocyte cell lines (THP-1), was quantified by means of an enzyme immuno-assay (ELISA).
Specifically, the THP-1 cell lines (ATCC) were cultured in an RPMI-1640 medium comprising 10% FBS. The cell lines were divided into a 24 well plate at a ratio of 1×10^5 cells per well, then treated with 100 ng/mL PMA (phorbol 12-myristate 13-acetate) for 24 hours, and then differentiated into macrophage. Then, the culture medium was replaced with a new one, then treated with a test drug for 24 hours, and then treated again with 10 ng/mL LPS (E. Coli, O55:B5) for four hours for stimulation. After that, supernatant was taken and used to measure the amount of TNFα secreted from the cells by means of a Human TNFα Instant ELISA kit (eBioscience, BMS223INST) according to a protocol provided by a manufacturer.

NZB/W F1 female mice [7] = assay: Survival rate in SLE model mouse; assay type: in vivo; details: for survival rate: 42 weeks after birth
Protocol: as §1, §2
An NZB/W F1 female mouse is used as a human SLE disease model. If not treated at all, it is known that this model falls dead all after 12 months or so (about 52 weeks old) due to immune-complex glomerulonephritis.

[8] = experimental groups vs control groups
[9] = experimental groups, 40 weeks old

In the case of `O=C(NO)c1ccc(CN(C(=O)N2CCOCC2)c2cccc(C(F)(F)F)c2)cc1` [Compound 374, N-(4-(hydroxycarbamoyl)benzyl)-N-(3-(trifluoromethyl)phenyl)morpholine-4-carboxamide], the “concentration of IgG1 in serum” value (NZB/W F1 female mice [1]) is reported as “decreased”, the “concentration of IgG2a in serum” value (NZB/W F1 female mice [1]) is reported as “decreased” and the “concentration of IgG2b in serum” value (NZB/W F1 female mice [1]) is reported as “decreased”. The “concentration of IgG3 in serum” value (NZB/W F1 female mice [1]) was “decreased”, the “concentration of IgM in serum” value (NZB/W F1 female mice [1]) was “remarkably decreased” and the BUN concentration (NZB/W F1 female mice [2]; [8]) was “decreased”. The serum creatine concentration (NZB/W F1 female mice [2]; [8]) was “decreased”, the BUN concentration (NZB/W F1 female mice [2]; [9]) was “remarkably excellent effect of reducing” and the serum creatine concentration (NZB/W F1 female mice [2]; [9]) was “remarkably excellent effect of reducing”. For the same compound, the “level of CCL2 in serum” value (NZB/W F1 female mice [3]; 50 mg/kg dosed group) was “decreased”, the “level of CXCL10 in serum” value (NZB/W F1 female mice [3]; all the experimental groups) was “decreased” and the ALP (NZB/W F1 female mice [4]; group D, 10 mg/kg/day i.p.) was 187.44 ± 20.75 U/I. It also gave an ALT (NZB/W F1 female mice [4]; group D, 10 mg/kg/day i.p.) of 18.10 ± 1.72 U/I, an AST (NZB/W F1 female mice [4]; group D, 10 mg/kg/day i.p.) of 44.20 ± 3.19 U/I and an Albumin (NZB/W F1 female mice [4]; group D, 10 mg/kg/day i.p.) of 1.91 ± 0.14 g/dL. It also gave a CPK (NZB/W F1 female mice [4]; group D, 10 mg/kg/day i.p.) of 86.70 ± 17.99 U/I, a Ca (NZB/W F1 female mice [4]; group D, 10 mg/kg/day i.p.) of 10.08 ± 0.40 mg/dL and a Glucose (NZB/W F1 female mice [4]; group D, 10 mg/kg/day i.p.) of 162.56 ± 9.36 mg/dL. It also gave a TBIL (NZB/W F1 female mice [4]; group D, 10 mg/kg/day i.p.) of 0.22 ± 0.03 mg/dL, a TCHOL (NZB/W F1 female mice [4]; group D, 10 mg/kg/day i.p.) of 193.60 ± 34.55 mg/dL and a TG (NZB/W F1 female mice [4]; group D, 10 mg/kg/day i.p.) of 241.00 ± 35.25 mg/dL. The TP (NZB/W F1 female mice [4]; group D, 10 mg/kg/day i.p.) was 4.74 ± 0.20 g/dL, the ALP (NZB/W F1 female mice [4]; group E, 30 mg/kg/day i.p.) was 155.92 ± 5.53* U/I and the ALT (NZB/W F1 female mice [4]; group E, 30 mg/kg/day i.p.) was 20.79 ± 0.78* U/I. For the same compound, the AST (NZB/W F1 female mice [4]; group E, 30 mg/kg/day i.p.) was 55.21 ± 5.17* U/I, the Albumin (NZB/W F1 female mice [4]; group E, 30 mg/kg/day i.p.) was 2.19 ± 0.11 g/dL and the CPK (NZB/W F1 female mice [4]; group E, 30 mg/kg/day i.p.) was 84.71 ± 8.39 U/I. The Ca (NZB/W F1 female mice [4]; group E, 30 mg/kg/day i.p.) was 9.65 ± 0.19 mg/dL, the Glucose (NZB/W F1 female mice [4]; group E, 30 mg/kg/day i.p.) was 191.29 ± 7.33* mg/dl and the TBIL (NZB/W F1 female mice [4]; group E, 30 mg/kg/day i.p.) was 0.26 ± 0.03 mg/dL. For the same compound, the TCHOL (NZB/W F1 female mice [4]; group E, 30 mg/kg/day i.p.) was 140.07 ± 14.48 mg/dL, the TG (NZB/W F1 female mice [4]; group E, 30 mg/kg/day i.p.) was 240.86 ± 56.19* mg/dl and the TP (NZB/W F1 female mice [4]; group E, 30 mg/kg/day i.p.) was 5.21 ± 0.19 g/dL. The ALP (NZB/W F1 female mice [4]; group F, 50 mg/kg/day i.p.) was 153.08 ± 4.78 U/I, the ALT (NZB/W F1 female mice [4]; group F, 50 mg/kg/day i.p.) was 29.07 ± 3.26* U/I and the AST (NZB/W F1 female mice [4]; group F, 50 mg/kg/day i.p.) was 59.00 ± 15.00 U/I. The Albumin (NZB/W F1 female mice [4]; group F, 50 mg/kg/day i.p.) was 2.26 ± 0.09* g/dl, the CPK (NZB/W F1 female mice [4]; group F, 50 mg/kg/day i.p.) was 125.86 ± 47.35 U/I and the Ca (NZB/W F1 female mice [4]; group F, 50 mg/kg/day i.p.) was 9.43 ± 0.16 mg/dL. The Glucose (NZB/W F1 female mice [4]; group F, 50 mg/kg/day i.p.) was 200.23 ± 3.91* mg/dl, the TBIL (NZB/W F1 female mice [4]; group F, 50 mg/kg/day i.p.) was 0.28 ± 0.04 mg/dL and the TCHOL (NZB/W F1 female mice [4]; group F, 50 mg/kg/day i.p.) was 129.57 ± 8.98 mg/dL. For the same compound, the TG (NZB/W F1 female mice [4]; group F, 50 mg/kg/day i.p.) was 183.29 ± 15.00 mg/dL, the TP (NZB/W F1 female mice [4]; group F, 50 mg/kg/day i.p.) was 5.35 ± 0.16* g/dl and the “infiltration of inflammatory cells in kidney (marks 0-4)” value (NZB/W F1 female mice [5]; 30 and 50 mg/kg dosed groups) was “remarkably excellent effect of reducing the infiltration of inflammatory cells”. The “degree of infiltration of inflammatory cells in kidney (marks 0-4)” value (NZB/W F1 female mice [5]; experimental groups) was “decreased”, the “level of TNFα secretion” value [6] was “remarkably decreased” and the survival rate (NZB/W F1 female mice [7]; 10 mg/kg dosed group) was “about 73.3%”. For the same compound, the survival rate (NZB/W F1 female mice [7]; 30 mg/kg dosed group) was “about 93.3%”, the survival rate (NZB/W F1 female mice [7]; 50 mg/kg dosed group) was “about 93.3%” and the survival rate pattern (NZB/W F1 female mice [7]; experimental groups (10, 30, 50 mg/kg), vs negative control) was “better recovery pattern”.
